Assay results: patent US20170312308A1, “XENON AND/OR ARGON TREATMENT AS AN ADJUNCT TO PSY[…] PSYCHIATRIC DISORDERS” (THE MCLEAN HOSPITAL CORPORATION, priority 2012, published 2017)
“Also recorded” adds a separate entry of the source.

Columns and labels:
Type in all cases: in vivo, rat
Male Sprague-Dawley rats [1] = assay: Conditioned freezing paradigm: consolidation of fear memory (xenon exposure immediately after fear conditioning); conditions: for conditioned freezing to context (consolidation of fear memory) / conditioned freezing to tone (CS) (consolidation of fear memory): xenon 25% for 24 h immediately after tone+shock training, vs Air-treated, tested after exposure and retested 1 and 2 weeks later; for conditioned freezing to context (consolidation of fear memory): FIG. 1B; for conditioned freezing to tone (CS) (consolidation of fear memory): FIG. 1C
Procedure: (§1) An illustration of the methodology used for training and testing rats in the conditioned freezing paradigm is shown in FIG. 1 (see also Johansen et al., Cell, 2011, 147; 509-524). Male Sprague-Dawley rats (350-375 g) were housed for at least one week before the experiment. On the training day, rats were placed into a conditioning chamber, housed within a sound-attenuating cabinet (Med Associates, Georgia, Vt.), for 2 min before the onset of the conditioned stimulus (CS). The CS was a tone (5 kHz, 75 dB) that lasted for 30 s. The last 2 s of the CS were paired with a continuous foot shock (0.6 mA, the unconditioned stimulus (US)). Rats received two presentations of the CS+US (tone plus shock). After additional 30 s in the chamber, rats were randomly divided into two groups (n=4/group) and immediately placed in either the Air or xenon-exposure chambers. After 24-h of air or xenon (25%) exposure, rats were tested for retention of conditioned fear using conditioned freezing as a measure of fear. For the test, rats were placed into a different context and, 2 min later, were exposed to the tone CS (5 kHz, 75 dB) for 60 s. Freezing scores were calculated as the percentage of the total duration that the rat remained immobile (frozen) other than breathing during the first 2 min (freezing to context) and during presentation of the CS (freezing to tone). Rats were then returned to the main animal holding room (i.e. no more air or xenon exposure took place) and were retested 1 and 2 weeks later (re-test and 3rd test) as described above.

Male Sprague-Dawley rats [2] = assay: Conditioned freezing paradigm: reconsolidation of fear memory (xenon exposure after reactivation test); conditions: for conditioned freezing to context (reconsolidation of fear memory): FIG. 1D; for conditioned freezing to tone (reconsolidation of fear memory): FIG. 1E
Procedure: as §1
Newly formed memories, including traumatic memories, are stabilized over several hours after the acquisition for long-term storage. This process, termed consolidation, critically depends on the permanence of acquisition-induced synaptic modifications in the corresponding neural circuits and is NMDA-receptor dependent. Once retrieved, consolidated memory enters a labile state again and should be reconsolidated, or it will be diminished or lost (see Debiec, 2012). To explore the effects of xenon exposure on post-retrieval memory reconsolidation, the inventors trained and tested male Sprague-Dawley rats in the conditioned freezing paradigm described in the methods section above.
Immediately after the fear memory test (24 h post-conditioning), where animals are subjected to context and CS (tone) exposure previously paired with shock (on the training day), rats were placed in either the Air or xenon (25%) exposure chambers for 1 hr. Rats were then tested for conditioned freezing 48 hours later. […]

Male Sprague-Dawley rats [3] = assay: as above; conditions: xenon 25%, no react group (no reactivation test); for conditioned freezing to context, animals without reactivation test: FIG. 1F; for conditioned freezing to tone, animals without reactivation test: FIG. 1G
[4] = xenon 25% for 1 hr after reactivation test 24 h post-conditioning, re-tested 48 hours later (PR-LTM1)
[5] = xenon 25% for 1 hr after reactivation test 24 h post-conditioning, re-tested 48 hours later (PR-LTM1), listed as Xe
[6] = xenon 25% for one hour after reactivation, tested after another 48 hours (PR-LTM2)

## [Xe] [xenon]
Male Sprague-Dawley rats [1]; inhaled xenon (25%), male Sprague-Dawley rats, vs non-treated animals, FIG. 1
  fear memory / conditioned freezing, context and cue not separated: significantly reduces the consolidation of fear memories; also recorded: significantly reduced conditioned freezing
Male Sprague-Dawley rats [1]
  conditioned freezing to context (consolidation of fear memory): reduced levels of conditioned freezing
  conditioned freezing to tone (CS) (consolidation of fear memory): reduced levels of conditioned freezing
Male Sprague-Dawley rats [1]; listed as Xe
  conditioned freezing to context (consolidation of fear memory): significant reduction in freezing
  conditioned freezing to tone (CS) (consolidation of fear memory): also reduced
Male Sprague-Dawley rats [2]; [4]
  conditioned freezing to context (reconsolidation of fear memory): reduces the expression of conditioned freezing; also recorded: blocks reconsolidation of conditioned fear
  conditioned freezing to tone (reconsolidation of fear memory): reduces the expression of conditioned freezing; also recorded: blocks reconsolidation of conditioned fear
Male Sprague-Dawley rats [2]; [5]
  conditioned freezing to context (reconsolidation of fear memory): significantly less freezing
  conditioned freezing to tone (reconsolidation of fear memory): significantly less freezing
Male Sprague-Dawley rats [2]; [6]
  conditioned freezing to context (reconsolidation of fear memory): significantly less freezing
  conditioned freezing to tone (reconsolidation of fear memory): significantly less freezing
Male Sprague-Dawley rats [3]
  conditioned freezing to context, animals without reactivation test: does not block reconsolidation of conditioned fear
  conditioned freezing to tone, animals without reactivation test: does not block reconsolidation of conditioned fear
Male Sprague-Dawley rats [3]; listed as Xe
  conditioned freezing to context, animals without reactivation test: no reduction in freezing
  conditioned freezing to tone, animals without reactivation test: no reduction in freezing
